What was measured:
PKR(G332S) = PKR(G332S) (Homo sapiens, UniProt P30613, G332S); experiment: Luminescence Biochemical Assay (Kinase Glo Plus), PKR G332S mutant; settings: with FBP; for activation at 1.54 µM: 1.54 μM compound, read-out: AC50 LUM KGP FBP % Fold@1.54 μM mean; for AC50: read-out: AC50 LUM KGP FBP AC50 μM gmean (column A); for Emax: read-out: AC50 LUM KGP FBP MAX % FOLD mean
Experimental: In some embodiments, a PKR Activating Compound can have: (1) an AC50 value of less than 0.1 μM (e.g., compounds with AC50 values of “+++” in Table 13), 0.1-1.0 μM (e.g., compounds with AC50 values of “++” in Table 13), or 1.01-40 μM (e.g., compounds with AC50 values of “+” in Table 13); (2) a MAX % Fold of 75%-250%, 250-500%, or 75%-500%; and/or (3) a % Fold@1.54 μM of 75%-250%, 250-500%, or 75%-500%. In some embodiments, a PKR Activating Compound has (1) an AC50 value of less than 1.0 μM; (2) a MAX % Fold of 75%-500%; and/or (3) a % Fold@1.54 μM of 75%-500%.
The phosphorylation of Adenosine-5′-diphosphate (ADP) by various mutants of PKR was determined by the Kinase Glo Plus Assay (Promega) in the presence or absence of FBP [D-Fructose-1,6-diphosphate; BOC Sciences, CAS: 81028-91-3] as follows. Unless otherwise indicated, all reagents were purchased from Sigma-Aldrich. All reagents were prepared in buffer containing 50 mM Tris-HCl, 100 mM KCl, 5 mM MgCl2, and 0.01% Triton X100, 0.03% BSA, and 1 mM DTT. Enzyme and PEP [Phospho(enol) pyruvic acid] were added at 2× to all wells of an assay-ready plate containing serial dilutions of test compounds or DMSO vehicle. Final enzyme concentrations for PKR(wt), PKR(R510Q), and PKR(G332S) were 0.8 nM, 0.8 nM, and 10 nM respectively. Final PEP concentration was 100 μM. The Enzyme/PEP mixture was incubated with compounds for 30 minutes at RT before the assay was initiated with the addition of 2×ADP [Adenosine-5′-diphosphate] and KinaseGloPlus. Final concentration of ADP was 100 μM. […] For assays containing FBP, that reagent is added at 30 μM upon reaction initiation. Reactions were allowed to progress for 45 minutes at RT until luminescence was recorded by the BMG PHERAstar FS Multilabel Reader. All compounds were tested in triplicate at concentrations ranging from 42.5 μM to 2.2 nM in 0.83% DMSO.
Luminescence values were converted to % Fold increase by normalizing to the average of the DMSO control and multiplying by 100. Max, min, slope and AC50 were determined by the standard four parameter fit algorithm of ActivityBase XE Runner. Compounds were evaluated with three parameters—AC50, MAX % Fold, and % Fold@1.54 μM (FIG. 1). The AC50 value for a compound is the concentration (μM) corresponding to the midway between the maximum and minimum values of the four parameter logistic curve fit (i.e., at which the % fold increase along the four parameter logistic curve fit is halfway between MAX % Fold and MIN % Fold (% Fold Midpoint)), MAX % Fold is the highest fold increase observed at any concentration of compound, and % Fold@1.54 μM is the fold increase at a compound concentration of 1.54 μM. The parameter % Fold@1.54 μM was selected to capture elements of both the AC50 and MAX % Fold and to provide a ranking based on both potency and effect. The compound concentration of 1.54 μM was chosen as one that can optimally differentiate the set of compounds based on the range of activities observed.
As set forth in Table 13 below, AC50 values (columns A, D, G) are defined as follows: ≤0.1 μM (+++); >0.1 μM and ≤1.0 μM (++); >1.0 μM and ≤40 μM (+); >40 μM (0). Max % FOLD values (columns B, E, H) are defined as follows: ≤75% (+); >75% and ≤250% (++); >250% and ≤500% (+++). % Fold@1.54 μM values (columns C, F, J) are defined as follows: ≤75% (+); >75% and ≤250% (++); >250% and ≤50000 (+++).

PKR(wt) = PKR(wt) (Homo sapiens, UniProt P30613); experiment: Luminescence Biochemical Assay (Kinase Glo Plus), wild type PKR; settings: without FBP; for activation at 1.54 µM: 1.54 μM compound, read-out: AC50 LUM KGP woFBP % Fold@1.54 μM mean; for AC50: read-out: AC50 LUM KGP woFBP AC50 μM gmean; for Emax: read-out: AC50 LUM KGP woFBP MAX % FOLD mean
Sequence of PKR(wt) (P30613 whole entry): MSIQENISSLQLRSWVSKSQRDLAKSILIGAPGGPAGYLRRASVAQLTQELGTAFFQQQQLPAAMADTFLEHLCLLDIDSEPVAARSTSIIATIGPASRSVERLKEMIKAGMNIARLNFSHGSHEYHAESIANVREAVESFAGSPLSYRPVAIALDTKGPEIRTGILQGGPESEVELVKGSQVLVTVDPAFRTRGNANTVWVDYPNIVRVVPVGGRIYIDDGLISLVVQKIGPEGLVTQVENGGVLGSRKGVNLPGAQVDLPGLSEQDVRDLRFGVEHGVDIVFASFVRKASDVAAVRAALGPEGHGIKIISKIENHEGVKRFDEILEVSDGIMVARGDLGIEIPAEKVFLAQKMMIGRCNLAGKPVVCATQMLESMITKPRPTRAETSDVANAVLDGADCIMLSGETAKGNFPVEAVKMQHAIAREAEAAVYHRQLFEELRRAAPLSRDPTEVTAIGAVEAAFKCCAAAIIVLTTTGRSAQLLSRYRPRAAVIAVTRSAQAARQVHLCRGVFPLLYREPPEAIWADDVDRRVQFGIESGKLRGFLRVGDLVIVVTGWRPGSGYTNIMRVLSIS

PKR(R510Q) = PKR(R510Q) (Homo sapiens, UniProt P30613, R510Q); experiment: Luminescence Biochemical Assay (Kinase Glo Plus), PKR R510Q mutant; settings: without FBP; for activation at 1.54 µM: 1.54 μM compound, read-out: AC50 LUM KGP woFBP % Fold@1.54 μM mean; for AC50: read-out: AC50 LUM KGP woFBP AC50 μM gmean; for Emax: read-out: AC50 LUM KGP woFBP MAX % FOLD mean
Sequence of PKR(R510Q) (P30613 whole entry R510Q): as the sequence (P30613 whole entry) above, with R510Q counted along it

Sequence of PKR(G332S) (P30613 whole entry G332S): as the sequence (P30613 whole entry) above, with G332S counted along it

| Structure (SMILES) | activation at 1.54 µM (PKR(G332S)) | AC50 (PKR(G332S)) | Emax (PKR(G332S)) | activation at 1.54 µM (PKR(wt)) | AC50 (PKR(wt)) | Emax (PKR(wt)) | activation at 1.54 µM (PKR(R510Q)) | AC50 (PKR(R510Q)) | Emax (PKR(R510Q)) |
| --- | --- | --- | --- | --- | --- | --- | --- | --- | --- |
| O=C([C@H](O)c1ccccc1)N1CC2=C(C1)CN(S(=O)(=O)c1cccnc1)C2 [Example 4-1, (2R)-2-hydroxy-2-phenyl-1-[5-(pyridine-3-sulfonyl)-1H,2H,3H,4H,5H,6H-pyrrolo[3,4-c]pyrrol-2-yl]ethan-1-one] | 75 to 250% | 0.1 to 1 µM | 75 to 250% | 75 to 250% | 0.1 to 1 µM | 75 to 250% | 75 to 250% | 1 to 40 µM | 250 to 500% |
| O=C([C@H](O)c1ccccc1)N1CC2=C(C1)CN(S(=O)(=O)c1cccnc1C(F)(F)F)C2 [Example 4-2, (R)-2-hydroxy-2-phenyl-1-(5-(2-(trifluoromethyl)pyridin-3-ylsulfonyl)-4,5-dihydropyrrolo[3,4-c]pyrrol-2(1H,3H,4H)-yl)ethanone] | 75 to 250% | 1 to 40 µM | 75 to 250% | 75 to 250% | 1 to 40 µM | 75 to 250% | 75 to 250% | 1 to 40 µM | 75 to 250% |
| O=C(N1CCOCC1)N1CC2=C(C1)CN(S(=O)(=O)c1ccc3ncsc3c1)C2 [Example 6-1, (5-(benzo[d]thiazol-6-ylsulfonyl)-3,4,5,6-tetrahydropyrrolo[3,4-c]pyrrol-2(1H)-yl)(morpholino)methanone] | 75 to 250% | 1 to 40 µM | 75 to 250% | 75 to 250% | 1 to 40 µM | 250 to 500% | 75 to 250% | 1 to 40 µM | 250 to 500% |
| O=C(C1CCOCC1)N1CC2=C(C1)CN(S(=O)(=O)c1ccc3c(c1)NCCO3)C2 [Example 7-1, (5-((3,4-dihydro-2H-benzo[b][1,4]oxazin-6-yl)sulfonyl)-3,4,5,6-tetrahydropyrrolo[3,4-c]pyrrol-2(1H)-yl)(tetrahydro-2H-pyran-4-yl)methanone] | 75 to 250% | 0.1 to 1 µM | 75 to 250% | 75 to 250% | 0.1 to 1 µM | 250 to 500% | 75 to 250% | 1 to 40 µM | 250 to 500% |
| O=C(Cc1ccccn1)N1CC2=C(C1)CN(S(=O)(=O)c1ccc(OC(F)F)cc1)C2 [Example 8-1, 1-(5-[[4-(difluoromethoxy)benzene]sulfonyl]-1H,2H,3H,4H,5H,6H-pyrrolo[3,4-c]pyrrol-2-yl)-2-(pyridin-2-yl)ethan-1-one] | 75 to 250% | ≤ 0.1 µM | 75 to 250% | 250 to 50000% | 0.1 to 1 µM | 250 to 500% | 250 to 50000% | 0.1 to 1 µM | 250 to 500% |
| O=C(C(O)c1cccnc1)N1CC2=C(C1)CN(S(=O)(=O)c1ccc(OC(F)F)cc1)C2 (centres unmarked) [Example 9-1, 1-(5-[[4-(Difluoromethoxy)benzene]sulfonyl]-1H,2H,3H,4H,5H,6H-pyrrolo[3,4-c]pyrrol-2-yl)-2-hydroxy-2-(pyridin-3-yl)ethan-1-one] | 75 to 250% | ≤ 0.1 µM | 75 to 250% | 250 to 50000% | ≤ 0.1 µM | 250 to 500% | 250 to 50000% | ≤ 0.1 µM | 250 to 500% |
| O=C([C@H](O)c1ccccc1)N1CC2=C(C1)CN(S(=O)(=O)c1ccccn1)C2 [Example 9-2, (2R)-2-hydroxy-2-phenyl-1-[5-(pyridine-2-sulfonyl)-1H,2H,3H,4H,5H,6H-pyrrolo[3,4-c]pyrrol-2-yl]ethan-1-one] | 75 to 250% | 0.1 to 1 µM | 75 to 250% | 75 to 250% | – | 75 to 250% | 75 to 250% | 0.1 to 1 µM | 250 to 500% |
| O=C([C@H](O)c1ccccc1)N1CC2=C(C1)CN(S(=O)(=O)c1cccc(C(F)(F)F)n1)C2 [Example 9-3, (2R)-2-hydroxy-2-phenyl-1-[5-[6-(trifluoromethyl)pyridine-2-sulfonyl]-1H,2H,3H,4H,5H,6H-pyrrolo[3,4-c]pyrrol-2-yl]ethan-1-one] | 75 to 250% | 1 to 40 µM | 75 to 250% | 75 to 250% | 0.1 to 1 µM | 75 to 250% | 75 to 250% | 1 to 40 µM | 250 to 500% |

More lines, now with the values ahead:

| activation at 1.54 µM (PKR(G332S)) | AC50 (PKR(G332S)) | Emax (PKR(G332S)) | activation at 1.54 µM (PKR(wt)) | AC50 (PKR(wt)) | Emax (PKR(wt)) | activation at 1.54 µM (PKR(R510Q)) | AC50 (PKR(R510Q)) | Emax (PKR(R510Q)) | Structure (SMILES) |
| --- | --- | --- | --- | --- | --- | --- | --- | --- | --- |
| 75 to 250% | 1 to 40 µM | 75 to 250% | 75 to 250% | 1 to 40 µM | 75 to 250% | 75 to 250% | 1 to 40 µM | 75 to 250% | O=C(N1CC2=C(C1)CN(S(=O)(=O)c1cccc3cccnc13)C2)N1CC(O)(Cc2ccccc2)C1 [Example 12-1, (3-Benzyl-3-hydroxyazetidin-1-yl)(5-(quinolin-8-ylsulfonyl)-4,5-dihydropyrrolo[3,4-c]pyrrol-2(1H,3H,4)-yl)methanone] |
| 75 to 250% | 1 to 40 µM | 75 to 250% | 75 to 250% | 1 to 40 µM | 75 to 250% | 75 to 250% | 1 to 40 µM | 75 to 250% | CC(=O)Nc1cc(S(=O)(=O)N2CC3=C(CN(C(=O)[C@H](O)c4ccccc4)C3)C2)ccc1F [Example 14-1, (R)—N-(2-fluoro-5-((5-(2-hydroxy-2-phenylacetyl)-3,4,5,6-tetrahydropyrrolo[3,4-c]pyrrol-2(1H)-yl)sulfonyl)phenyl)acetamide] |
| 75 to 250% | 0.1 to 1 µM | 75 to 250% | 250 to 50000% | ≤ 0.1 µM | 250 to 500% | 250 to 50000% | ≤ 0.1 µM | 250 to 500% | Cc1cccc(S(=O)(=O)N2CC3=C(CN(C(=O)NCc4ccccc4F)C3)C2)n1 [Example 15-1, N-[(2-fluorophenyl)methyl]-5-(6-methylpyridine-2-sulfonyl)-1H,2H,3H,4H,5H,6H-pyrrolo[3,4-c]pyrrole-2-carboxamide] |
| 75 to 250% | 1 to 40 µM | 75 to 250% | 75 to 250% | 1 to 40 µM | 250 to 500% | 75 to 250% | 1 to 40 µM | 75 to 250% | O=C(Cc1cccnc1)N1CC2=C(C1)CN(S(=O)(=O)c1ccccn1)C2 [Example 16-1, 2-(Pyridin-3-yl)-1-[5-(pyridine-2-sulfonyl)-1H,2H,3H,4H,5H,6H-pyrrolo[3,4-c]pyrrol-2-yl]ethan-1-one] |
| 75 to 250% | 1 to 40 µM | 75 to 250% | 75 to 250% | 1 to 40 µM | 75 to 250% | 75 to 250% | 1 to 40 µM | 75 to 250% | NS(=O)(=O)c1cccc(S(=O)(=O)N2CC3=C(CN(C(=O)[C@H](O)c4ccccc4)C3)C2)c1 [Example 17-1, 3-[5-[(2R)-2-hydroxy-2-phenylacetyl]-1H,2H,3H,4H,5H,6H-pyrrolo[3,4-c]pyrrole-2-sulfonyl]benzene-1-sulfonamide] |
